Results as given in PubChem BioAssay (NCI).
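Five compound concentrations were applied to cells in 96-well plates for 48 hours; endpoints were derived by simple linear interpolation of the resulting dose-response curve. Abbreviation: GI50, concentration required for 50% inhibition of growth. At the TGI there is no net growth.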 Where a SMILES comes first, the peptide text is derived from it. The star is where a group is joined. Cbz = O=C(OCc1ccccc1)*; Boc = CC(C)(C)OC(=O)*; OBn = c1ccc(CO*)cc1

Tests used:
Assay in all cases: NCI-60 cell line screen, 48 h
RXF 393 renal = test system: RXF 393 renal
PC-3 prostate = test system: PC-3 prostate
A549 NSCLC = test system: A549 NSCLC
SF-295 CNS = test system: SF-295 CNS
DU-145 prostate = test system: DU-145 prostate
NCI-H460 lung = test system: NCI-H460 lung
SF-268 CNS = test system: SF-268 CNS
OVCAR-3 ovarian = test system: OVCAR-3 ovarian
SK-MEL-5 melanoma = test system: SK-MEL-5 melanoma
SK-MEL-2 melanoma = test system: SK-MEL-2 melanoma

Structure (SMILES) | TGI (RXF 393 renal) [µM] | TGI (PC-3 prostate) [µM] | TGI (A549 NSCLC) [µM] | TGI (SF-295 CNS) [µM] | TGI (DU-145 prostate) [µM] | TGI (NCI-H460 lung) [µM] | TGI (SF-268 CNS) [µM] | TGI (OVCAR-3 ovarian) [µM] | TGI (SK-MEL-5 melanoma) [µM] | TGI (SK-MEL-2 melanoma) [µM] | GI50 (RXF 393 renal) [µM] | GI50 (PC-3 prostate) [µM] | GI50 (A549 NSCLC) [µM] | GI50 (SK-MEL-2 melanoma) [µM] | GI50 (SF-295 CNS) [µM] | GI50 (DU-145 prostate) [µM] | GI50 (OVCAR-3 ovarian) [µM] | GI50 (SK-MEL-5 melanoma) [µM]
CCOC(=O)c1cn2c(ccc3sc4ccccc4c(=O)c32)n1 | > 100 | > 100 | > 100 | > 100 | > 100 | > 100 | > 100 | > 100 | > 100 | – | – | – | – | – | – | – | – | –
O=[N+]([O-])c1ccc(O)c(C=NCC2CCCN3CCCCC23)c1 (stereo unspecified) | 59.7 | > 100 | > 100 | > 100 | > 100 | > 100 | 75.5 | > 100 | 69.9 | – | – | – | – | – | – | – | – | –
COc1ccc(-c2nc3cc(C(F)(F)F)ccc3n2CC2CCCN3CCCCC23)cc1 (stereo unspecified) | 33.8 | 26.5 | – | 36.6 | 30.8 | 29.2 | 28.6 | 37.1 | 27.5 | 28.9 | – | – | – | – | – | – | – | –
CCOC(=O)N1N(c2ccccc2)C(=O)C1(c1ccccc1)c1ccccc1 | > 100 | > 100 | > 100 | > 100 | > 100 | – | > 100 | > 100 | > 100 | 70.5 | – | – | – | – | – | – | – | –
O=P1(Oc2ccccc2)NCc2ncccc2O1 (stereo unspecified) | > 100 | > 100 | > 100 | > 100 | > 100 | > 100 | – | > 100 | > 100 | > 100 | – | – | – | – | – | – | – | –
CN(C)/C=C/c1c2c(nc3ccccc13)C(=O)c1ccccc1C2=O | 9.83 | 3.77 | 8.72 | 2.88 | 2.69 | 1.4 | 5.26 | 0.622 | 0.536 | 6.27 | – | – | – | – | – | – | – | –
CCOC(=O)CNC(=O)C(C)NC(=O)C(NC(=O)OCc1ccccc1)C(C)C (stereo not drawn) (Cbz-Val-Ala-Gly-OEt; configuration not given here) | > 100 | > 100 | > 100 | > 100 | > 100 | > 100 | > 100 | > 100 | > 100 | > 100 | – | – | – | – | – | – | – | –
CC(=O)c1ccccc1NS(=O)(=O)c1ccc2nc(C)n(NS(=O)(=O)c3ccccc3C(C)=O)c(=O)c2c1 | > 100 | > 100 | – | > 100 | > 100 | > 100 | > 100 | > 100 | > 100 | > 100 | – | – | – | – | – | – | – | –
Brc1ccc(-c2cc(-c3ccc4c(c3)OCO4)c(-c3cccs3)n2Cc2ccccc2)cc1 | > 100 | > 100 | > 100 | > 100 | > 100 | > 100 | > 100 | – | > 100 | > 100 | – | – | – | – | – | – | – | –
CCOC(=O)C1=C(C)NC(C)=C(C(=O)OCC)C1c1ccc(C)cc1 | 75.5 | 66 | > 100 | > 100 | > 100 | 48 | > 100 | 87.7 | 35.3 | 98.4 | – | – | – | – | – | – | – | –
S=C(c1c[nH]c2ccccc12)N1CCCCC1 | > 100 | > 100 | – | > 100 | > 100 | > 100 | > 100 | > 100 | > 100 | > 100 | – | – | – | – | – | – | – | –
Oc1ccccc1-c1nn2c(CCCCCCCCc3nnc4sc(-c5ccccc5O)nn34)nnc2s1 | > 64.1 | > 100 | > 78 | > 100 | > 75.5 | > 100 | > 100 | 64.3 | 64.8 | > 67.5 | – | – | – | – | – | – | – | –
Cc1[nH]c(=O)nc(N(CCO)/N=C/c2ccc(Cl)cc2)c1C(=O)Nc1ccc(Cl)cc1 | 76.3 | > 100 | > 100 | > 100 | > 100 | > 100 | > 100 | > 100 | > 100 | > 100 | – | – | – | – | – | – | – | –
CCOP(C)(=O)/C(Cc1ccc(OC)c(OC)c1)=N\O (stereo unspecified) | > 100 | > 100 | > 100 | > 100 | > 100 | > 100 | – | > 100 | > 100 | > 100 | – | – | – | – | – | – | – | –
Cc1nn(-c2ccccc2)c2nc3ccc(Cl)cc3c(-c3ccccc3)c12 | – | > 100 | > 100 | > 100 | > 100 | > 100 | > 100 | > 100 | > 100 | > 100 | – | – | – | – | – | – | – | –
O=S(=O)(O)c1ccccc1N=Nc1ccc(N=Nc2c(O)ccc3ccccc23)c(S(=O)(=O)O)c1 | > 100 | > 100 | > 100 | > 100 | > 100 | – | > 100 | > 100 | > 100 | > 100 | – | – | – | – | – | – | – | –

Structure (SMILES) | TGI (RXF 393 renal) [µM] | TGI (PC-3 prostate) [µM] | TGI (A549 NSCLC) [µM] | TGI (SF-295 CNS) [µM] | TGI (DU-145 prostate) [µM] | TGI (NCI-H460 lung) [µM] | TGI (SF-268 CNS) [µM] | TGI (OVCAR-3 ovarian) [µM] | TGI (SK-MEL-5 melanoma) [µM] | TGI (SK-MEL-2 melanoma) [µM] | GI50 (RXF 393 renal) [µM] | GI50 (PC-3 prostate) [µM] | GI50 (A549 NSCLC) [µM] | GI50 (SK-MEL-2 melanoma) [µM] | GI50 (SF-295 CNS) [µM] | GI50 (DU-145 prostate) [µM] | GI50 (OVCAR-3 ovarian) [µM] | GI50 (SK-MEL-5 melanoma) [µM]
Cc1ccc([N+](=O)[O-])cc1S(=O)(=O)Nc1ccc(C2=NN(S(=O)(=O)c3cc([N+](=O)[O-])ccc3C)C(c3ccco3)C2)cc1 (stereo unspecified) | > 100 | > 100 | – | > 100 | > 100 | – | > 100 | > 100 | > 100 | > 100 | – | – | – | – | – | – | – | –
CN(C)Cc1cc(C(=O)/C=C/c2ccc(F)cc2)cc(CN(C)C)c1O | 46.9 | > 100 | > 100 | 31.6 | > 100 | 22.3 | 63.9 | 50.9 | 35.5 | – | – | – | – | – | – | – | – | –
O=C(c1ccccc1)c1nn(-c2ccccc2)c2nc3nc(-c4ccccc4)cc(=O)n3nc12 | > 100 | > 100 | 81.4 | 53 | 58.2 | – | – | 49.5 | 27.1 | 65.6 | 26 | 32.4 | 26.5 | 23.8 | 19.9 | 23.8 | 19.9 | 13.6
CC(C)CC(NC(=O)C(Cc1ccccc1)NC(=O)C(Cc1ccccc1)NC(=O)OC(C)(C)C)C(=O)OCc1ccccc1 (stereo not drawn) (Boc-Phe-Phe-Leu-OBn; configuration not given here) | > 100 | > 100 | > 100 | > 100 | > 100 | – | > 100 | > 100 | > 100 | > 100 | – | – | – | – | – | – | – | –
Cc1ccc(C)c(COCCOCn2c(=O)[nH]c(=O)c3cc(Br)ccc32)c1 | > 100 | > 100 | > 100 | > 100 | > 100 | > 100 | > 100 | > 100 | – | > 100 | – | – | – | – | – | – | – | –
CS/C=C\C(=O)O[C@H]1C[C@@H]2[C@@H](O)c3occ(C)c3C[C@]2(C)[C@@H](C)C1 | 47.2 | > 100 | – | 77 | 90.3 | 60.7 | 82.3 | 31 | 28.2 | – | – | – | – | – | – | – | – | –
Nc1[nH]c(=S)c2c(N)n[nH]c2c1C(=O)Nc1ccc(Cl)cc1 | > 100 | > 100 | > 100 | – | > 100 | > 100 | > 100 | > 100 | > 100 | > 100 | – | – | – | – | – | – | – | –
Nc1ccc(OCCCc2c(-c3ccccc3)nc(N)[nH]c2=O)cc1 | > 100 | > 100 | – | > 100 | > 100 | > 100 | > 100 | > 100 | > 100 | – | – | – | – | – | – | – | – | –
CC(=O)OCCOCCN1CCN(c2c(O)c3c(c(O)c2Cl)C(=O)C=CC3=O)CC1 | 1.93 | 3.28 | 3.94 | 3.72 | 3.29 | – | 3.62 | 2 | 2.97 | 3.26 | – | – | – | – | – | – | – | –
Cc1nc2ccccc2n1Cc1nnc2n1N=C(c1ccccc1)CS2 | – | 53.6 | > 100 | > 100 | > 100 | > 100 | > 100 | > 100 | > 100 | 40.7 | – | – | – | – | – | – | – | –
Cc1cc(=O)c2ccccc2n1CCCCCCCCCCn1c(C)cc(=O)c2ccccc21 | 72.3 | > 100 | 56.2 | – | 41.9 | 87.4 | 89.4 | > 100 | 6.27 | – | – | – | – | – | – | – | – | –
CCn1c(=O)c2c3cc(OC(C)=O)ccc3oc2c2ccc(OC(C)=O)cc21 | > 100 | > 100 | > 100 | 72 | > 100 | > 100 | > 100 | > 100 | > 100 | – | – | – | – | – | – | – | – | –
NC(=O)C1CCCN1C(=O)N(CCCl)N=O (stereo unspecified) | – | > 100 | > 100 | > 100 | > 100 | > 100 | > 100 | > 100 | > 100 | > 100 | – | – | – | – | – | – | – | –
COCn1c(C)c(C)c2c(=O)oc(C)nc21 | > 100 | > 100 | > 100 | > 100 | > 100 | > 100 | > 100 | – | > 100 | > 100 | – | – | – | – | – | – | – | –
O=c1c2c3c(sc2nc2n1N=C(c1ccc([N+](=O)[O-])cc1)CS2)CCCC3 | > 100 | > 100 | > 100 | > 100 | > 100 | > 100 | > 100 | > 100 | > 100 | – | – | – | – | – | – | – | – | –
N=C(N)SCc1ccc(N=C=S)cc1 | 17.8 | 30.1 | 30.5 | 31.2 | 29.5 | 30.4 | 35.1 | – | 27.2 | 23 | – | – | – | – | – | – | – | –
